Test results as given in ChEMBL document CHEMBL5053528, “Discovery of 2-(Ortho-Substituted Benzyl)-Indole Derivatives as Potent and Orally Bioavailable RORγ Agonists with Antitumor Activity” (J Med Chem, 2021).
Each block holds one compound with its values, some of them ahead of it.

What was measured:
[1] = biological target: T1, Nuclear receptor ROR-gamma (Homo sapiens, UniProt P51449); experiment: Antagonist activity at N-terminal GST tagged human RORgamma LBD using fluorescein-D22 as coactivator incubated for 60 mins by Lanthascreen TR-FRET assay
T1 sequence (P51449 whole entry): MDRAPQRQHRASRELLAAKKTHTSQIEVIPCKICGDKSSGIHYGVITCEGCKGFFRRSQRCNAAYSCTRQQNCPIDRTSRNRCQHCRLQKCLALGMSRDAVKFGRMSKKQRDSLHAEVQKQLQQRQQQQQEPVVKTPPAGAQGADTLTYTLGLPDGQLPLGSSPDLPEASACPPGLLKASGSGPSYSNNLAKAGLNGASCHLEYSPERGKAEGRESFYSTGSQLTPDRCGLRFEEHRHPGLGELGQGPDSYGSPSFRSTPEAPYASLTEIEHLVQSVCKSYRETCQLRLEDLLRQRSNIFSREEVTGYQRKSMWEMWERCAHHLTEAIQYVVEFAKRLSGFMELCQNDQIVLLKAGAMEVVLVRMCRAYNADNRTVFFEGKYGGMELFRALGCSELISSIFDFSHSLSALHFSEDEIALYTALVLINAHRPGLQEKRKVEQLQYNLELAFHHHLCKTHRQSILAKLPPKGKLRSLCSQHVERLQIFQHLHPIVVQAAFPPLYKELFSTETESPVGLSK

[2] = biological target: T1, Nuclear receptor ROR-gamma; experiment: Agonist activity at N-terminal GST tagged human RORgamma LBD using fluorescein-D22 as coactivator incubated for 60 mins by Lanthascreen TR-FRET assay
[3] = biological target: T1, Nuclear receptor ROR-gamma; experiment: Partial agonist activity at human RORgamma in cytostim stimulated human PBMC cells assessed as […] in differentiation of TH17 cells by measuring IL-17 production preincubated with cytostim for 72 hrs by ELISA; format: cell-based
[4] = biological target: T2, Nuclear receptor ROR-gamma (Homo sapiens) (UniProt P51449); experiment: Partial agonist activity at human RORgamma in cytostim stimulated human PBMC cells assessed as increase in IL-17 production by measuring maximal efficacy preincubated with cytostim for 72 hrs by ELISA relative to control; format: cell-based; conditions: filed as partial agonist
T2 sequence (whole entry): T1 sequence (P51449 whole entry)

[5] = Microsomal stability in human liver microsomes assessed as half life; format: ADME, Microsome
[6] = Microsomal stability in rat liver microsomes assessed as half life; format: ADME, Microsome
[7] = biological target: T1, Nuclear receptor ROR-gamma; experiment: Agonist activity at human RORgamma in cytostim stimulated human PBMC cells assessed as increase in differentiation of TH17 cells by measuring IL-17 production preincubated with cytostim for 72 hrs by ELISA; format: cell-based
[8] = Clearance in mouse at 1 mg/kg, iv; format: ADME, organism-based; conditions: in vivo
[9] = Clearance in rat at 1 mg/kg, iv; format: ADME, organism-based; conditions: in vivo
[10] = Clearance in dog at 0.5 mg/kg, iv; format: ADME, organism-based, Canis lupus familiaris; conditions: in vivo
[11] = Cmax in mouse at 2 mg/kg, po; format: ADME, organism-based; parameters: dose 2 mg/kg, route po; conditions: in vivo
[12] = Cmax in rat at 2 mg/kg, po; format: ADME, organism-based; parameters: dose 2 mg/kg, route po; conditions: in vivo
[13] = Cmax in dog at 2 mg/kg, po; format: ADME, organism-based, Canis lupus familiaris; parameters: dose 2 mg/kg, route po; conditions: in vivo
[14] = AUC (0 to t) in mouse at 1 mg/kg, iv; format: ADME, organism-based; parameters: dose 1 mg/kg, route iv; conditions: in vivo
[15] = AUC (0 to t) in mouse at 2 mg/kg, po; format: ADME, organism-based; parameters: dose 2 mg/kg, route po; conditions: in vivo
[16] = AUC (0 to t) in rat at 1 mg/kg, iv; format: ADME, organism-based; parameters: dose 1 mg/kg, route iv; conditions: in vivo
[17] = AUC (0 to t) in rat at 2 mg/kg, po; format: ADME, organism-based; parameters: dose 2 mg/kg, route po; conditions: in vivo
[18] = AUC (0 to t) in dog at 0.5 mg/kg, iv; format: ADME, organism-based, Canis lupus familiaris; parameters: dose 0.5 mg/kg, route iv; conditions: in vivo
[19] = AUC (0 to t) in dog at 2 mg/kg, po; format: ADME, organism-based, Canis lupus familiaris; parameters: dose 2 mg/kg, route po; conditions: in vivo
[20] = Volume of distribution in mouse at 1 mg/kg, iv; format: ADME, organism-based; conditions: in vivo, read-out: Vd
[21] = Volume of distribution in mouse at 2 mg/kg, po; format: ADME, organism-based; conditions: in vivo
[22] = Volume of distribution in rat at 1 mg/kg, iv; format: ADME, organism-based; conditions: in vivo
[23] = Volume of distribution in dog at 0.5 mg/kg, iv; format: ADME, organism-based, Canis lupus familiaris; conditions: in vivo
[24] = Volume of distribution in dog at 2 mg/kg, po; format: ADME, organism-based, Canis lupus familiaris; conditions: in vivo
[25] = Half life in mouse at 1 mg/kg, iv; format: ADME, organism-based; conditions: in vivo
[26] = Half life in mouse at 2 mg/kg, po; format: ADME, organism-based; conditions: in vivo
[27] = Half life in rat at 1 mg/kg, iv; format: ADME, organism-based; conditions: in vivo
[28] = Half life in dog at 0.5 mg/kg, iv; format: ADME, organism-based, Canis lupus familiaris; conditions: in vivo
[29] = Half life in dog at 2 mg/kg, po; format: ADME, organism-based, Canis lupus familiaris; conditions: in vivo
[30] = Oral bioavailability in mouse; format: ADME, organism-based; conditions: in vivo
[31] = Oral bioavailability in rat; format: ADME, organism-based; conditions: in vivo
[32] = Oral bioavailability in dog; format: ADME, organism-based, Canis lupus familiaris; conditions: in vivo
[33] = Drug metabolism in rat liver microsomes assessed as amide hydrolysis metabolite formation at 1 mg/kg, iv; format: ADME, Microsome
[34] = Drug metabolism in rat plasma assessed as amide hydrolysis metabolite formation at 1 mg/kg, iv; format: ADME, organism-based; conditions: in vivo
[35] = Drug metabolism in dog liver microsomes assessed as amide hydrolysis metabolite formation at 1 mg/kg, iv; format: ADME, Canis lupus familiaris, Microsome
[36] = Drug metabolism in dog plasma assessed as amide hydrolysis metabolite formation at 1 mg/kg, iv; format: ADME, organism-based, Canis lupus familiaris; conditions: in vivo

- EC50 [1]: 683 nM
Compound: CCS(=O)(=O)c1ccc(CNC(=O)c2ccc3c(c2)cc(Cc2ccccc2)n3C(C)C)cc1

- EC50 [2]: 25 nM
- EC50 [3]: 2 nM
- Emax [4]: 79%
- half-life [5]: 0.217 h
- half-life [6]: 0.2 h
Compound: CCc1ccccc1Cc1cc2cc(C(=O)NCc3ccc(S(=O)(=O)CC)cc3)ccc2n1C(C)C

- EC50 [7]: 2 nM
- clearance [8]: 0.834 mL/min/kg
- clearance [9]: 60.2 mL/min/kg
- clearance [10]: 27.2 mL/min/kg
- Cmax [11]: 3270 ng/mL
- Cmax [12]: 6.4 ng/mL
- Cmax [13]: 55.9 ng/mL
- AUC(0-t) [14]: 20000 ng·h/mL
- AUC(0-t) [15]: 18900 ng·h/mL
- AUC(0-t) [16]: 277 ng·h/mL
- AUC(0-t) [17]: 3.73 ng·h/mL
- AUC(0-t) [18]: 309 ng·h/mL
- AUC(0-t) [19]: 103 ng·h/mL
- Vd [20]: 0.193 L/kg
- Vd [21]: 0.569 L/kg
- Vd [22]: 4.48 L/kg
- Vd [23]: 2.05 L/kg
- Vd [24]: 73.7 L/kg
- half-life [25]: 2.67 h
- half-life [26]: 3.72 h
- half-life [27]: 0.86 h
- half-life [28]: 0.876 h
- half-life [29]: 2.14 h
- bioavailability [30]: 47.3%
- bioavailability [31]: 0.673%
- bioavailability [32]: 8.33%
- Drug metabolism [33]: Metabolite_Detected
- Drug metabolism [34]: Metabolite_Detected
- Drug metabolism [35]: Metabolite_Detected
- Drug metabolism [36]: Metabolite_Detected
- EC50 [2]: 2 nM
- half-life [5]: 2.88 h
- half-life [6]: 2.1 h
Compound: CCS(=O)(=O)c1ccc(CNC(=O)c2ccc3c(c2)cc(Cc2ccc(Cl)cc2C(F)(F)F)n3CCF)cc1
